Results taken from PubChem BioAssay (NCI).
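Step 1: Grow cells in 96-well plates. Step 2: Expose to compound for 48 hours at 5 concentrations. Step 3: Interpolate endpoints linearly; if unreached, use highest concentration. Here, GI50 denotes the concentration required for 50% inhibition of growth. The concentration for full growth arrest is given as TGI.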

Tests used:
Test in all cases: NCI-60 cell line screen, 48 h
NCI-H23 lung = system: NCI-H23 lung
NCI-H460 lung = system: NCI-H460 lung
NCI-H522 lung = system: NCI-H522 lung
NCI/ADR-RES ovarian = system: NCI/ADR-RES ovarian
OVCAR-3 ovarian = system: OVCAR-3 ovarian
OVCAR-4 ovarian = system: OVCAR-4 ovarian
OVCAR-5 ovarian = system: OVCAR-5 ovarian
OVCAR-8 ovarian = system: OVCAR-8 ovarian
PC-3 prostate = system: PC-3 prostate
RPMI-8226 leukemia = system: RPMI-8226 leukemia
RXF 393 renal = system: RXF 393 renal
SF-268 CNS = system: SF-268 CNS
SF-295 CNS = system: SF-295 CNS
SF-539 CNS = system: SF-539 CNS
SK-MEL-2 melanoma = system: SK-MEL-2 melanoma
SK-MEL-28 melanoma = system: SK-MEL-28 melanoma
SK-MEL-5 melanoma = system: SK-MEL-5 melanoma
SK-OV-3 ovarian = system: SK-OV-3 ovarian
SN12C renal = system: SN12C renal
SNB-19 CNS = system: SNB-19 CNS
SNB-75 CNS = system: SNB-75 CNS
SR leukemia = system: SR leukemia
SW-620 colon = system: SW-620 colon
T-47D breast = system: T-47D breast
TK-10 renal = system: TK-10 renal
U251 CNS = system: U251 CNS
UACC-257 melanoma = system: UACC-257 melanoma
UACC-62 melanoma = system: UACC-62 melanoma
UO-31 renal = system: UO-31 renal

With `NC(N)=N/N=C(\N=Nc1ccccc1)c1ccc(Cl)cc1` the TGI (NCI-H23 lung) was 30 µM, the GI50 (NCI-H460 lung) was 3.13 µM and the TGI (NCI-H460 lung) was 16.5 µM. For the same compound, the GI50 (NCI-H522 lung) was 3.35 µM, the TGI (NCI-H522 lung) was 13.8 µM and the GI50 (NCI/ADR-RES ovarian) was 2.76 µM. It also gave a TGI (NCI/ADR-RES ovarian) of 10.4 µM, a GI50 (OVCAR-3 ovarian) of 2.8 µM and a TGI (OVCAR-3 ovarian) of 7.24 µM. It also gave a GI50 (OVCAR-4 ovarian) of 1.79 µM, a TGI (OVCAR-4 ovarian) of 12.6 µM and a GI50 (OVCAR-5 ovarian) of 3.69 µM. It also gave a TGI (OVCAR-5 ovarian) of 16.8 µM, a GI50 (OVCAR-8 ovarian) of 2.81 µM and a TGI (OVCAR-8 ovarian) of 9.58 µM. The GI50 (PC-3 prostate) was 2.48 µM, the TGI (PC-3 prostate) was 11.3 µM and the GI50 (RPMI-8226 leukemia) was 3.21 µM. The TGI (RPMI-8226 leukemia) was 12 µM, the GI50 (RXF 393 renal) was 2.69 µM and the TGI (RXF 393 renal) was 9.33 µM. For the same compound, the GI50 (SF-268 CNS) was 3.53 µM, the TGI (SF-268 CNS) was 15.7 µM and the GI50 (SF-295 CNS) was 1.82 µM. For the same compound, the TGI (SF-295 CNS) was 6.39 µM, the GI50 (SF-539 CNS) was 2.98 µM and the TGI (SF-539 CNS) was 8.1 µM. For the same compound, the GI50 (SK-MEL-2 melanoma) was 3.79 µM, the TGI (SK-MEL-2 melanoma) was 13.1 µM and the GI50 (SK-MEL-28 melanoma) was 1.98 µM. For the same compound, the TGI (SK-MEL-28 melanoma) was 4.59 µM, the GI50 (SK-MEL-5 melanoma) was 3.73 µM and the TGI (SK-MEL-5 melanoma) was 14.8 µM. It also gave a GI50 (SK-OV-3 ovarian) of 3.44 µM, a TGI (SK-OV-3 ovarian) of 9.63 µM and a GI50 (SN12C renal) of 4.65 µM. For the same compound, the TGI (SN12C renal) was 22.1 µM, the GI50 (SNB-19 CNS) was 12 µM and the TGI (SNB-19 CNS) was 35.5 µM. For the same compound, the GI50 (SNB-75 CNS) was 4.67 µM, the TGI (SNB-75 CNS) was 17.8 µM and the GI50 (SR leukemia) was 1.93 µM. It also gave a TGI (SR leukemia) of 4.72 µM, a GI50 (SW-620 colon) of 1.41 µM and a TGI (SW-620 colon) of 3.54 µM. For the same compound, the GI50 (T-47D breast) was 2.31 µM, the TGI (T-47D breast) was 8.17 µM and the GI50 (TK-10 renal) was 3.18 µM. The TGI (TK-10 renal) was 12 µM, the GI50 (U251 CNS) was 2.39 µM and the TGI (U251 CNS) was 7.55 µM. For the same compound, the GI50 (UACC-257 melanoma) was 2.42 µM, the TGI (UACC-257 melanoma) was 6.37 µM and the GI50 (UACC-62 melanoma) was 1.13 µM. The TGI (UACC-62 melanoma) was 4.35 µM, the GI50 (UO-31 renal) was 2.29 µM and the TGI (UO-31 renal) was 6.34 µM.
